Measurements from patent US20220213092A1, “BICYCLIC PYRAZOLE BRUTON'S TYROSINE KINASE INHIBITORS” (AbbVie Inc., priority 2020, published 2022).
pEC50, pIC50: −log10 of the molar value.

Legend:
BTK = target: T1, BTK (Homo sapiens, UniProt Q06187); assay: BTK kinase electrophoretic mobility shift assay (MSA); type: biochemical; conditions: 50 μM ATP, 0.5 nM BTK enzyme (Nanosyn-293HEK, WT), 3 hours at 25° C.; all examples except 50, 51, 62 and 63; read-out: BTK IC50
T1 construct: purchased Nanosyn, Santa Clara, Calif; host or cells: 293HEK
T1 sequence (Q06187 whole entry): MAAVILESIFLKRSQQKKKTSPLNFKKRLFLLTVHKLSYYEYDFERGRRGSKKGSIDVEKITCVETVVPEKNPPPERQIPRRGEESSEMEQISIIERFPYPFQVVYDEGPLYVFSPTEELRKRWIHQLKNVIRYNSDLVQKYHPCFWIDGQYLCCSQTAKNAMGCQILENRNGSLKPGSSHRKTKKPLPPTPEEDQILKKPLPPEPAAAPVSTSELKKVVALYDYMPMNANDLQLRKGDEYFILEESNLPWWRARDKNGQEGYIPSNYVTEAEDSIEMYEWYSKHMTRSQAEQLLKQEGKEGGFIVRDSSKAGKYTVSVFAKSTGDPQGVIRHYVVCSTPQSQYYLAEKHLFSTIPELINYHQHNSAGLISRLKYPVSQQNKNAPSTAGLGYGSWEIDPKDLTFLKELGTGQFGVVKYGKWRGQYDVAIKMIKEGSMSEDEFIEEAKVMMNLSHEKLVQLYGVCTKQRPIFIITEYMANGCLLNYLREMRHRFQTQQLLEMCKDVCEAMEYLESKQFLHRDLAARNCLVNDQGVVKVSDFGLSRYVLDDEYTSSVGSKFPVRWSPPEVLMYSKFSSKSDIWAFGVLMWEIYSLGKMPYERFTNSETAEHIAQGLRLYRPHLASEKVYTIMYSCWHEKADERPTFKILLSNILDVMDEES
Experimental: Kinase activity, unless otherwise indicated, was measured in vitro using an electrophoretic mobility shift assay (MSA). The phosphorylation of a peptide substrate by BTK and other kinases was measured. The kinase reactions were assembled in a total volume of 25 μL per well in 384 well plates. The following was added to each well: compound buffer (or control); enzyme buffer; and substrate buffer, as further described below.
The terminated reactions were analyzed using a 12 channel LABCHIP® 3000 microfluidic detection instrument (available from Caliper Life Sciences, Waltham, Mass.). […] Change in the relative fluorescence intensity of the substrate and product peaks was the parameter measured, reflecting enzyme activity. In the presence of an inhibitor, the ratio between product and substrate was altered. The signal of the product decreased, while the signal of the substrate increased. Capillary electrophoregrams (RDA acquisition files) were analyzed using HTS Well Analyzer software (available from Caliper Life Sciences, Waltham, Mass.).
Activity in each sample was determined as the product to sum ratio (PSR): P/(S+P), where P was the peak height of the product peptide and S was the peak height of the substrate peptide. For each compound, enzyme activity was measured at various concentrations (12 concentrations of compound spaced by 3× dilution intervals). Negative control samples (00 inhibition in the absence of inhibitor) and positive control samples (10000 inhibition, in the presence of 20 mM EDTA) were assembled in replicates of four and were used to calculate 00 inhibition values for each inhibitor at each concentration. Percent inhibition (Pinh) was determined using following equation: Pinh=(PSR0%−PSRinh)/(PSR0%−PSR100%)*100, where PSRinh was the product sum ratio in the presence of inhibitor, PSR0% was the average product sum ratio in the absence of inhibitor and PSR100% was the average product sum ratio in 100%−inhibition control samples.
The IC50 values of inhibitors were determined by 4 parameter sigmoidal dose response model fitting of the inhibition curves (Pinh versus inhibitor concentration) using XLfit® 4 software (available from IDBS, Boston, Mass.).

[1] = target: T2, Phosphorylation of Y223 of BTK (Homo sapiens, UniProt Q06187); assay: Whole blood compound screening, phosphorylation of Y223 site of BTK (MSD assay); type: cell-based; conditions: healthy human whole blood, 2 hours at 37° C., 3 separate donors; read-out: WB BTK-pY223 EC50
T2 construct: host or cells: healthy human whole blood, 3 donors
T2 sequence (Q06187 whole entry): as above
Experimental: Healthy human whole blood (WB) was collected from […]™ Technologies or […]® in sodium heparinized tubes. Whole blood was stored at ambient temperature to avoid coagulation. Each compound was tested in 3 separate donors. Compound stock solutions (10 mM) were used to generate dose titration (8 concentrations, starting concentration 10 μM, 1:4 dilution) in appropriate volume of dimethyl sulfoxide (0.2%). Whole blood was incubated with compounds in 96-well plates for 2 hours in tissue culture incubators at 37° C. under a 5% CO2 atmosphere. The whole blood was lysed in equal volume of lysis buffer (Cell Signaling Technology®, Danvers, Mass.) containing complete protease inhibitor tablet, PhosSTOP™ tablet, sodium orthovanadate and sodium fluoride and phenylmethanesulfonyl fluoride solution. The lysed whole blood was then frozen at −80° C. for overnight.
Phosphorylation of Y223 of BTK was measured using an MSD assay (Meso Scale Diagnostics, LLC, Rockville, Md.). The thawed lysed whole blood was incubated with the capturing antibody rabbit anti-human BTK (D3H5) (Cell Signaling Technology, Danvers, Mass.) at 4° C. overnight. After washing out the unbound samples, the detection antibody biotinylated rabbit anti-pY223-BTK(D9T6H) (Cell Signaling Technology®, Danvers, Mass.) was added to the plates. After washing out the unbound antibodies, SULFO-TAG Streptavidin (Meso Scale Diagnostics, LLC, Rockville, Md.) was used for detection on Meso Sector S600 (Meso Scale Diagnostics, LLC, Rockville, Md.).
The EC50 values were determined using software from Dotmatics. The activity of exemplary compounds is illustrated below.

Row | Compound | pIC50 (BTK) | pEC50 [1]
1 | C=CC(=O)N1CCC(C2CCNc3c2nn(-c2ccc(Oc4cccc(F)c4)cc2)c3C(N)=O)CC1 (stereo not shown) [Example 12, 2-[4-(3-fluorophenoxy)phenyl]-7-[1-(prop-2-enoyl)piperidin-4-yl]-4,5,6,7-tetrahydro-2H-pyrazolo[4,3-b]pyridine-3-carboxamide] | 9.31 | 7.48
2 | C=CC(=O)N1CCN([C@@H]2CCNc3c2nn(-c2ccc(Oc4cccc(C#N)c4)cc2)c3C(N)=O)CC1 [Example 64, (7R)-2-[4-(3-cyanophenoxy)phenyl]-7-[4-(prop-2-enoyl)piperazin-1-yl]-4,5,6,7-tetrahydro-2H-pyrazolo[4,3-b]pyridine-3-carboxamide] | 8.25 | 7.12
3 | C=CC(=O)N1CCN(C2CCNc3c2nn(-c2ccc(Oc4ccccc4)cc2)c3C(N)=O)CC1 (stereo not shown) [Example 3, 2-(4-phenoxyphenyl)-7-[4-(prop-2-enoyl)piperazin-1-yl]-4,5,6,7-tetrahydro-2H-pyrazolo[4,3-b]pyridine-3-carboxamide] | 9.00 | 7.39
4 | C=CC(=O)N1CC(N2CCNc3c2nn(-c2ccc(Oc4ccccc4F)cc2)c3C(N)=O)C1 [Example 75, 2-[4-(2-fluorophenoxy)phenyl]-7-[1-(prop-2-enoyl)azetidin-3-yl]-4,5,6,7-tetrahydro-2H-pyrazolo[3,4-b]pyrazine-3-carboxamide] | 8.94 | 7.21
5 | C=CC(=O)N1CCN([C@@H]2CCNc3c2nn(-c2ccc(Oc4ccccc4C#N)cc2)c3C(N)=O)CC1 [Example 69, (7R)-2-[4-(2-cyanophenoxy)phenyl]-7-[4-(prop-2-enoyl)piperazin-1-yl]-4,5,6,7-tetrahydro-2H-pyrazolo[4,3-b]pyridine-3-carboxamide] | 8.66 | 7.53
6 | C=CC(=O)N1CCC(C2CCNc3c2nn(-c2ccc(Oc4ccccc4)cc2)c3C(N)=O)CC1 (racemic) [Example 1, Rac-2-(4-phenoxyphenyl)-7-[1-(prop-2-enoyl)piperidin-4-yl]-4,5,6,7-tetrahydro-2H-pyrazolo[4,3-b]pyridine-3-carboxamide] | 9.37 | 7.37
7 | C=CC(=O)N1CCN([C@@H]2CCNc3c2nn(-c2ccc(Oc4ccccc4OC)cc2)c3C(N)=O)CC1 [Example 93, (7R)-2-[4-(2-methoxyphenoxy)phenyl]-7-[4-(prop-2-enoyl)piperazin-1-yl]-4,5,6,7-tetrahydro-2H-pyrazolo[4,3-b]pyridine-3-carboxamide] | 8.29 | 6.40
8 | C=CC(=O)N1CCN([C@@H]2CCNc3c2nn(-c2ccc(Oc4cccc(C5CC5)c4)cc2)c3C(N)=O)CC1 [Example 78, (7R)-2-[4-(3-cyclopropylphenoxy)phenyl]-7-[4-(prop-2-enoyl)piperazin-1-yl]-4,5,6,7-tetrahydro-2H-pyrazolo[4,3-b]pyridine-3-carboxamide] | 9.17 | 7.24
9 | C=CC(=O)N1CCC(O)(C2CCNc3c2nn(-c2ccc(Oc4ccccc4)cc2)c3C(N)=O)CC1 (stereo not shown) [Example 84, 7-[4-hydroxy-1-(prop-2-enoyl)piperidin-4-yl]-2-(4-phenoxyphenyl)-4,5,6,7-tetrahydro-2H-pyrazolo[4,3-b]pyridine-3-carboxamide] | 8.85 | 7.34
10 | C=CC(=O)N1CCN([C@@H]2CCNc3c2nn(-c2ccc(Oc4cccc(C(F)(F)F)c4)cc2)c3C(N)=O)CC1 [Example 65, (7R)-7-[4-(prop-2-enoyl)piperazin-1-yl]-2-{4-[3-(trifluoromethyl)phenoxy]phenyl}-4,5,6,7-tetrahydro-2H-pyrazolo[4,3-b]pyridine-3-carboxamide] | 9.02 | 7.47
11 | C=CC(=O)N1CCN([C@H]2CCNc3c2nn(-c2ccc(Oc4ccccc4)cc2)c3C(N)=O)CC12CC2 [Example 83, (7S)-2-(4-phenoxyphenyl)-7-[4-(prop-2-enoyl)-4,7-diazaspiro[2.5]octan-7-yl]-4,5,6,7-tetrahydro-2H-pyrazolo[4,3-b]pyridine-3-carboxamide] | 7.18 | 5.76
12 | C=CC(=O)N1C2CC1CN([C@@H]1CCNc3c1nn(-c1ccc(Oc4ccccc4)cc1)c3C(N)=O)C2 [Example 73, (7R)-2-(4-phenoxyphenyl)-7-[6-(prop-2-enoyl)-3,6-diazabicyclo[3.1.1]heptan-3-yl]-4,5,6,7-tetrahydro-2H-pyrazolo[4,3-b]pyridine-3-carboxamide] | 7.80 | 6.59
13 | C=CC(=O)N1CCN([C@@H]2CCNc3c2nn(-c2ccc(Oc4ccccc4C(F)(F)F)cc2)c3C(N)=O)CC1 [Example 60, (7R)-7-[4-(prop-2-enoyl)piperazin-1-yl]-2-{4-[2-(trifluoromethyl)phenoxy]phenyl}-4,5,6,7-tetrahydro-2H-pyrazolo[4,3-b]pyridine-3-carboxamide] | 8.85 | 7.08
14 | C=CC(=O)N1CC(N2CCNc3c2nn(-c2ccc(Oc4ccccc4)cc2)c3C(N)=O)C1 [Example 22, 2-(4-phenoxyphenyl)-7-[1-(prop-2-enoyl)azetidin-3-yl]-4,5,6,7-tetrahydro-2H-pyrazolo[3,4-b]pyrazine-3-carboxamide] | 8.95 | 7.42
15 | C=CC(=O)N1CCN([C@@H]2CCNc3c2nn(-c2ccc(Oc4ccc(F)cc4)cc2)c3C(N)=O)CC1 [Example 71, (7R)-2-[4-(4-fluorophenoxy)phenyl]-7-[4-(prop-2-enoyl)piperazin-1-yl]-4,5,6,7-tetrahydro-2H-pyrazolo[4,3-b]pyridine-3-carboxamide] | 7.64 | 6.55
16 | C=CC(=O)N1CC(N2CCNc3c2nn(-c2ccc(Oc4cccc(F)c4F)cc2)c3C(N)=O)C1 [Example 76, 2-[4-(2,3-difluorophenoxy)phenyl]-7-[1-(prop-2-enoyl)azetidin-3-yl]-4,5,6,7-tetrahydro-2H-pyrazolo[3,4-b]pyrazine-3-carboxamide] | 9.01 | 7.07
17 | C=CC(=O)N1CCN([C@@H]2CCNc3c2nn(-c2ccc(Oc4cc(F)ccc4F)cc2)c3C(N)=O)CC1 [Example 74, (7R)-2-[4-(2,5-difluorophenoxy)phenyl]-7-[4-(prop-2-enoyl)piperazin-1-yl]-4,5,6,7-tetrahydro-2H-pyrazolo[4,3-b]pyridine-3-carboxamide] | 8.82 | 7.25
18 | C=CC(=O)N1CCN([C@@H]2CCNc3c2nn(-c2ccc(Oc4ccc(OC(F)(F)F)cc4)cc2)c3C(N)=O)CC1 [Example 85, (7R)-7-[4-(prop-2-enoyl)piperazin-1-yl]-2-{4-[4-(trifluoromethoxy)phenoxy]phenyl}-4,5,6,7-tetrahydro-2H-pyrazolo[4,3-b]pyridine-3-carboxamide] | 6.97 | 5.69
19 | C=CC(=O)N1CCC(C2CCNc3c2nn(-c2ccc(Oc4cccc(OC)c4)cc2)c3C(N)=O)CC1 (stereo not shown) [Example 15, 2-[4-(3-methoxyphenoxy)phenyl]-7-[1-(prop-2-enoyl)piperidin-4-yl]-4,5,6,7-tetrahydro-2H-pyrazolo[4,3-b]pyridine-3-carboxamide] | 9.16 | 7.25
20 | C=CC(=O)N1CCN([C@@H]2CCNc3c2nn(-c2ccc(Oc4cccc(OC)c4)cc2)c3C(N)=O)CC1 [Example 91, (7R)-2-[4-(3-methoxyphenoxy)phenyl]-7-[4-(prop-2-enoyl)piperazin-1-yl]-4,5,6,7-tetrahydro-2H-pyrazolo[4,3-b]pyridine-3-carboxamide] | 8.78 | 6.40
